In patent publication US20140039044A1, “Hydroxylated Polymethoxyflavone Compositions” (WLLGEN, INC., priority 2006, published 2014):

Columns and labels:
Type in all cases: cell-based, human
HT-29 cells = test: Cell survival assay (antiproliferative IC50); details: Homo sapiens
Protocol: (§1) Human colon carcinoma COLO205 and HT-29 cell lines (American Type Culture Collection (ATTC), Manassas, Va.) and the leukemia cell line HL-60 were maintained at 37° C. in 5% CO2 air in RPMI 1640 medium supplemented with 10% heat-inactivated fetal bovine serum (Gibco BRL, Grand Island, N.Y.), 100 units/mL penicillin, 100 μg/mL streptomycin and 2 mM 1-glutamine. The human gastric carcinoma AGS cell line (CCRC 60102), obtained from the Food Industry Research and Development Institute (Hsinchu, Taiwan), was maintained as described above, except that DMEM/F 12 was used as the medium rather than the RPMI 1640 medium. The human breast carcinoma MCF-7 cell line MCF-7 (ATTC) was cultured in RPMI 1640 medium supplemented with 5% fetal calf serum at 37° C. in a humidified atmosphere of 5% CO2 in air. The mouse macrophage cell line RAW 264.7 was maintained in RPMI 1640 supplemented with 100 U/ml penicillin, 100 μg/ml streptomycin, and 10% heat-inactivated fetal calf serum.
(§2) Cancer cells (2×10^5) were plated in 12-well Petri dishes. The next day, the medium was changed and treated with different concentration of the test compounds or compositions for 24 h. Where individual compounds were to be tested, stock solutions of the compound was prepared to contain 200 μM of the individual hydroxylated or non-hydroxylated PMF in dimethylsulfoxide (DMSO). Control cells were treated with DMSO to a final concentration of 0.05% (v/v). Depending on the objective of the particular experiment, cells were treating with test compound or composition for 1, 3 or 6 days. At the end of incubation, cells were harvested for cell count using a hemocytometer and measuring the cellular total nucleic acid content with the CyQUANT Cell Proliferation Assay Kit (Molecular Probes).
(§3) The PMF compounds were assayed in vitro for cell growth inhibition and for their ability to induce apoptosis in various human cancer cells, including HL-60, AGS, COLO 205, and HT-29 cells, using methods described in Section 8.4 above. Antiproliferative (IC50) and apoptosis-inducing activity (AC50) of PMFs in the HL-60, AGS, COLO 205, and HT-29 cells are reported in Table 9, where *P<0.05, **P<0.01 and ***P<0.001 indicate statistically significant differences from the control group.

COLO205 cells [1] = test: Cell cycle distribution by flow cytometry; details: COLO205 cells; for Cell Cycle Distribution G0/G1 / Cell Cycle Distribution G2/M / Cell Cycle Distribution S: 24 h, Table 12
Protocol: (§4) The human cancer cells (2×10^5) were cultured in 60-mm Petri dishes and incubated for 24 h. After treated with test compounds for 24 h, the cells were then harvested, washed with PBS resuspended in 200 μL of PBS, and fixed in 800 μL of iced 100% ethanol at −20° C. After being left to stand overnight, the cell pellets were collected by centrifugation, resuspended in 1 mL of hypotonic buffer (0.5% Triton X-100 in PBS and 0.5 μg/mL RNase) and incubated at 37° C. for 30 min. Next, 1 mL of propidium iodide solution (50 μg/mL) was added, and the mixture was allowed to stand on ice for 30 min. Fluorescence emitted from the propidium iodide-DNA complex was quantitated after excitation of the fluorescent dye by FACScan cytometry (Becton Dickinson, San Jose, Calif.).
(§5) The effects of the hydrolyzed PMF-enriched compositions, nobiletin and 70% PMF OPE on cell cycle distribution were studied, following the procedures described in Section 8.4. Results for cell cycle distribution in HL-60 cells, COLO205 cells and AGS cells are provided in Table 5, Table 6 and Table 7, respectively. […] In HL-60 cells, G2/M arrest predominated in cells treated with 6N PMF concentrations ≧5 μM and with 1N PMF concentrations ≧25 μM.
(§6) Compounds A-K were evaluated in terms of their effects in arresting cell cycle progression by observing cell cycle phase distribution in cells treated with the compounds. Cells were treated with 5, 10, 25, 50, and 100 μM of one of compound A-K or DMSO (control) for 24 h and subjected to flow cytometric analysis after staining their DNA, as described above.
(§7) Similar cell cycle phase distribution studies were performed in AGS, COLO205, and HT-29 cells in response to individual PMFs, with results reported in Tables 11, 12 and 13, respectively.

AGS cells [2] = test: Cell cycle distribution by flow cytometry; details: for Cell Cycle Distribution G0/G1 / Cell Cycle Distribution G2/M / Cell Cycle Distribution S: 24 h, Table 11
Protocol: as §4, §5, §6, §7

COLO205 cells [3] = test: Cell survival assay (antiproliferative IC50); details: Homo sapiens, COLO 205; COLO205 cells; read-out: Antiproliferative IC50
Protocol: as §1, §2
(§8) 1 N PMF and 6 N PMF compositions containing hydroxylated PMFs, prepared as described in Section 8.3 above, 70% PMF OPE and 5,6,7,8,3′,4′-hexamethoxyflavone (nobiletin) were tested for antiproliferative activity and apoptosis-inducing activity in HL-60, AGS and COLO205 cells as described in Section 8.4 above. Antiproliferative and apoptosis-inducing activities were derived as IC50 values and AC50, values, respectively, where AC50 is the concentration required for 50% apoptosis.
as §3

AGS cells [4] = test: Cell survival assay (antiproliferative IC50); details: Homo sapiens; AGS cells; read-out: Antiproliferative IC50
Protocol: as §1, §2, §8, §3

HL-60 cells = test: Cell survival assay (antiproliferative IC50); details: Homo sapiens; HL-60 cells; read-out: Antiproliferative IC50
Protocol: as §1, §2, §8, §3

| Structure (SMILES) | IC50 (HT-29 cells) | Cell Cycle Distribution G0/G1 (COLO205 cells [1]; 5 μM) | Cell Cycle Distribution G2/M (COLO205 cells [1]; 5 μM) | Cell Cycle Distribution S (COLO205 cells [1]; 5 μM) | Cell Cycle Distribution G0/G1 (COLO205 cells [1]; 10 μM) | Cell Cycle Distribution G2/M (COLO205 cells [1]; 10 μM) | Cell Cycle Distribution S (COLO205 cells [1]; 10 μM) | Cell Cycle Distribution G0/G1 (COLO205 cells [1]; 25 μM) | Cell Cycle Distribution G2/M (COLO205 cells [1]; 25 μM) | Cell Cycle Distribution S (COLO205 cells [1]; 25 μM) | Cell Cycle Distribution G0/G1 (COLO205 cells [1]; 50 μM) | Cell Cycle Distribution G2/M (COLO205 cells [1]; 50 μM) | Cell Cycle Distribution S (COLO205 cells [1]; 50 μM) | Cell Cycle Distribution G0/G1 (COLO205 cells [1]; 100 μM) | Cell Cycle Distribution G2/M (COLO205 cells [1]; 100 μM) | Cell Cycle Distribution S (COLO205 cells [1]; 100 μM) | Cell Cycle Distribution G0/G1 (AGS cells [2]; 5 μM) | Cell Cycle Distribution G2/M (AGS cells [2]; 5 μM) | Cell Cycle Distribution S (AGS cells [2]; 5 μM) | Cell Cycle Distribution G0/G1 (AGS cells [2]; 10 μM) | also measured |
| --- | --- | --- | --- | --- | --- | --- | --- | --- | --- | --- | --- | --- | --- | --- | --- | --- | --- | --- | --- | --- | --- |
| COc1ccc(-c2cc(=O)c3c(O)c(OC)c(OC)c(OC)c3o2)cc1O [Compound K, 5,3′-dihydroxy-6,7,8,4′-tetramethoxyflavone] | 40 µM | 57.68 ± 0.42 | 7.08 ± 0.20 | 34.52 ± 0.21 | 65.81 ± 0.83 | 1.75 ± 0.47 | 32.44 ± 2.28 | 66.63 ± 1.51 | 13.31 ± 1.91 | 20.06 ± 0.40 | 42.30 ± 1.12 | 23.42 ± 0.83 | 34.29 ± 0.29 | 43.58 ± 2.29 | 22.85 ± 2.96 | 33.57 ± 0.67 | 51.75 ± 0.73 | 13.65 ± 0.18 | 34.61 ± 0.91 | 22.20 ± 1.56 | G2/M cell cycle arrest, in words (COLO205 cells [1]): strongly potentiated the G2/M cell cycle arrest; G2/M cell cycle arrest, in words (AGS cells [2]): strongly potentiated the G2/M cell cycle arrest; Cell Cycle Distribution G2/M (AGS cells [2]; 10 μM): 48.12 ± 1.35; Cell Cycle Distribution S (AGS cells [2]; 10 μM): 26.69 ± 0.91; Cell Cycle Distribution G0/G1 (AGS cells [2]; 25 μM): 42.63 ± 0.05; Cell Cycle Distribution G2/M (AGS cells [2]; 25 μM): 34.57 ± 0.62; Cell Cycle Distribution S (AGS cells [2]; 25 μM): 22.81 ± 0.51; Cell Cycle Distribution G0/G1 (AGS cells [2]; 50 μM): 43.90 ± 2.37; Cell Cycle Distribution G2/M (AGS cells [2]; 50 μM): 35.67 ± 2.29; Cell Cycle Distribution S (AGS cells [2]; 50 μM): 20.44 ± 0.08; Cell Cycle Distribution G0/G1 (AGS cells [2]; 100 μM): 50.77 ± 1.01; Cell Cycle Distribution G2/M (AGS cells [2]; 100 μM): 31.20 ± 0.43; Cell Cycle Distribution S (AGS cells [2]; 100 μM): 18.04 ± 1.45; IC50 (COLO205 cells [3]): 11.2 µM; IC50 (AGS cells [4]): 9.61 µM; IC50 (HL-60 cells): 10 µM |
| COc1cc(-c2cc(=O)c3c(OC)c(OC)c(OC)c(OC)c3o2)ccc1O [Compound G, 4′-hydroxy-5,6,7,8,3′-pentamethoxyflavone] | 45.8 µM | 67.93 ± 0.74 | 4.71 ± 0.18 | 27.36 ± 0.56 | 72.87 ± 2.37 | 4.51 ± 0.08 | 22.64 ± 2.28 | 73.74 ± 0.51 | 6.47 ± 0.93 | 19.80 ± 0.42 | 73.90 ± 0.41 | 8.17 ± 0.23 | 17.94 ± 0.17 | 73.05 ± 0.30 | 7.61 ± 0.46 | 19.35 ± 0.76 | 55.39 ± 0.47 | 16.76 ± 0.86 | 27.86 ± 1.32 | 60.42 ± 1.28 | Cell Cycle Distribution G2/M (AGS cells [2]; 10 μM): 16.80 ± 1.75; Cell Cycle Distribution S (AGS cells [2]; 10 μM): 22.79 ± 0.47; Cell Cycle Distribution G0/G1 (AGS cells [2]; 25 μM): 68.29 ± 0.95; Cell Cycle Distribution G2/M (AGS cells [2]; 25 μM): 14.39 ± 0.16; Cell Cycle Distribution S (AGS cells [2]; 25 μM): 17.33 ± 0.80; Cell Cycle Distribution G0/G1 (AGS cells [2]; 50 μM): 62.27 ± 0.06; Cell Cycle Distribution G2/M (AGS cells [2]; 50 μM): 22.98 ± 1.90; Cell Cycle Distribution S (AGS cells [2]; 50 μM): 14.78 ± 1.83; Cell Cycle Distribution G0/G1 (AGS cells [2]; 100 μM): 50.27 ± 0.52; Cell Cycle Distribution G2/M (AGS cells [2]; 100 μM): 26.85 ± 1.85; Cell Cycle Distribution S (AGS cells [2]; 100 μM): 22.88 ± 2.38; IC50 (COLO205 cells [3]): 83.7 ± 4.96 µM; IC50 (AGS cells [4]): 70.5 ± 9.97 µM; IC50 (HL-60 cells): 47.4 ± 3.64 µM |
